Data from PMC8333062, “Chemical tools for epichaperome-mediated interactome dysfunctions of the central nervous system” (Nature Communications, 2021).

How the values were obtained:
[1] = tested on: MDA-MB-468 tumors; test: In vivo biodistribution of [131I]-PU-HZ151 (gamma counting); parameters: species or system mouse; key to Biodistribution, Lung / Biodistribution, Heart / Biodistribution, Muscle / Biodistribution, Blood / Biodistribution, Bone / Biodistribution, Brain / Biodistribution, tumor: percent injected dose per gram tissue (%ID/g); Biodistribution, Tumor - S / Biodistribution, Tumor - L: unit: %ID/g; conditions: mean
Protocol: Activity in the syringe before and after administration was assayed in a dose calibrator (CRC-15R; Capintec) to determine by difference the actual activity administered to each animal. Animals were euthanized by CO2 asphyxiation at different time points post-administration of the tracer and organs including tumors were harvested and weighed. […] Count data were background and decay-corrected to the time of injection, and the percent injected dose per gram (%ID g^−1) for each tissue sample was calculated by using a measured calibration factor to convert count rate to activity and the activity was normalized to the activity injected and the mass of sample assayed to yield the activity concentration in %ID g^−1.

[2] = tested on: MDA-MB-468 tumors; test: Radioactivity metabolite characterization (radio-HPLC of tumor extracts); format: in vivo, mouse; conditions: 24 h post iv
Protocol: MDA-MB-468 tumor xenografts were established on the forelimbs of female athymic nude mice (Hsd:Athymic Nude-Foxn1nu; Envigo; 6 weeks old; RRID:MGI:5652489) by subcutaneous (s.c.) injection of 5 × 10^6 cells in a 200 µl cell suspension of a 1:1 v/v mixture of PBS with reconstituted basement membrane (BD Matrigel^TM, Collaborative Biomedical Products Inc., Bedford, MA). […] After 24 h, tumors were harvested and weighed prior to homogenization in acetonitrile/H2O (3:7) using Bullet Blender Tissue Homogenizer (Next Advance Inc.). Tumor-associated radioactivity was extracted in methylene chloride, and the organic layer was separated and dried under vacuum. Samples were reconstituted in 10% CH3CN in 0.1% HCOOH in water were analyzed using Shimadzu (Columbia, Maryland USA) HPLC system equipped with binary pumps LC-20AB, UV detector and sodium iodide radioactivity detector connected to flow-ram (Lab Logic, Tampa, FL) and 250 × 4.6 mm Phenomenex Luna (Torrance, CA) C-18 HPLC column (10 µM, 100 A).

Which “Biodistribution, Blood” value ([1]; 1 h) does the source give for `CC(C)(C)CNCCn1c(Sc2cc3c(cc2[131I])OCO3)nc2c(N)ncnc21` [[131I]-PU-HZ151] here?
Its value is 0.732.

What about the “Biodistribution, Bone” value ([1]; 1 h) of the same compound?
Its value is 0.55.

And the “Biodistribution, Brain” value ([1]; 1 h)?
Its value is 0.397.

And the “Biodistribution, Heart” value ([1]; 1 h)?
The value was 0.402.

And the “Biodistribution, Lung” value ([1]; 1 h)?
Its value is 0.666.

And the “Biodistribution, Muscle” value ([1]; 1 h)?
The value was 0.29.

And the “Biodistribution, tumor” value ([1]; 1 h)?
Its value is 1.745.

What about the “Biodistribution, Blood” value ([1]; 4 h) of the same compound?
The value was 0.1086.

What about the “Biodistribution, Bone” value ([1]; 4 h) of the same compound?
The value was 0.07.

What about the “Biodistribution, Brain” value ([1]; 4 h) of the same compound?
The value was 0.015.

What about the “Biodistribution, Heart” value ([1]; 4 h) of the same compound?
Its value is 0.063.

What about the “Biodistribution, Lung” value ([1]; 4 h) of the same compound?
The value was 0.296.

And the “Biodistribution, Muscle” value ([1]; 4 h)?
The value was 0.034.

What about the “Biodistribution, Tumor - L” value ([1]; 4 h) of the same compound?
Its value is 0.5106.

And the “Biodistribution, Tumor - S” value ([1]; 4 h)?
Its value is 0.5895.

And the “Biodistribution, Blood” value ([1]; 6 h)?
The value was 0.08349.

What about the “Biodistribution, Bone” value ([1]; 6 h) of the same compound?
The value was 0.05.

What about the “Biodistribution, Brain” value ([1]; 6 h) of the same compound?
Its value is 0.01.

And the “Biodistribution, Heart” value ([1]; 6 h)?
Its value is 0.045.

What about the “Biodistribution, Lung” value ([1]; 6 h) of the same compound?
The value was 0.237.

And the “Biodistribution, Muscle” value ([1]; 6 h)?
The value was 0.044.

And the “Biodistribution, Tumor - L” value ([1]; 6 h)?
Its value is 0.4547.

What about the “Biodistribution, Tumor - S” value ([1]; 6 h) of the same compound?
Its value is 0.5075.

And the “Biodistribution, tumor” value ([1]; 6 h)?
The value was 0.5792.

What about the “Biodistribution, Blood” value ([1]; 8 h) of the same compound?
Its value is 0.05883.

And the “Biodistribution, Bone” value ([1]; 8 h)?
The value was 0.033.

What about the “Biodistribution, Brain” value ([1]; 8 h) of the same compound?
Its value is 0.005.

What about the “Biodistribution, Heart” value ([1]; 8 h) of the same compound?
Its value is 0.027.

And the “Biodistribution, Lung” value ([1]; 8 h)?
Its value is 0.129.

And the “Biodistribution, Muscle” value ([1]; 8 h)?
Its value is 0.023.

What about the “Biodistribution, Tumor - L” value ([1]; 8 h) of the same compound?
Its value is 0.3061.

And the “Biodistribution, Tumor - S” value ([1]; 8 h)?
The value was 0.2819.

And the “Biodistribution, Blood” value ([1]; 12 h)?
The value was 0.02368.

What about the “Biodistribution, Bone” value ([1]; 12 h) of the same compound?
The value was 0.012.

And the “Biodistribution, Brain” value ([1]; 12 h)?
The value was 0.002.

And the “Biodistribution, Heart” value ([1]; 12 h)?
Its value is 0.009.

And the “Biodistribution, Lung” value ([1]; 12 h)?
The value was 0.04.

What about the “Biodistribution, Muscle” value ([1]; 12 h) of the same compound?
The value was 0.006.

And the “Biodistribution, Tumor - L” value ([1]; 12 h)?
The value was 0.2552.

And the “Biodistribution, Tumor - S” value ([1]; 12 h)?
The value was 0.2535.

What about the “Biodistribution, Blood” value ([1]; first column group, 24 h) of the same compound?
Its value is 0.002331.

What about the “Biodistribution, Bone” value ([1]; first column group, 24 h) of the same compound?
The value was 0.016.

And the “Biodistribution, Brain” value ([1]; first column group, 24 h)?
The value was 0.001.

What about the “Biodistribution, Heart” value ([1]; first column group, 24 h) of the same compound?
Its value is 0.003.

And the “Biodistribution, Lung” value ([1]; first column group, 24 h)?
Its value is 0.012.

And the “Biodistribution, Muscle” value ([1]; first column group, 24 h)?
Its value is 0.002.

What about the “Biodistribution, Tumor - L” value ([1]; first column group, 24 h) of the same compound?
Its value is 0.2045.

What about the “Biodistribution, Tumor - S” value ([1]; first column group, 24 h) of the same compound?
Its value is 0.1544.

And the “Biodistribution, Bone” value ([1]; first column group, 48 h)?
Its value is 0.004.

What about the “Biodistribution, Brain” value ([1]; first column group, 48 h) of the same compound?
The value was 0.

What about the “Biodistribution, Heart” value ([1]; first column group, 48 h) of the same compound?
The value was 0.002.

And the “Biodistribution, Lung” value ([1]; first column group, 48 h)?
The value was 0.004.

What about the “Biodistribution, Muscle” value ([1]; first column group, 48 h) of the same compound?
The value was 0.001.

What about the “Biodistribution, Tumor - L” value ([1]; first column group, 48 h) of the same compound?
The value was 0.08346.

What about the “Biodistribution, Tumor - S” value ([1]; first column group, 48 h) of the same compound?
Its value is 0.08811.

What about the “Biodistribution, Blood” value ([1]; second column group, 24 h) of the same compound?
The value was 0.0041.

And the “Biodistribution, Bone” value ([1]; second column group, 24 h)?
Its value is 0.012.

And the “Biodistribution, Brain” value ([1]; second column group, 24 h)?
The value was 0.00319.

What about the “Biodistribution, Heart” value ([1]; second column group, 24 h) of the same compound?
Its value is 0.0138.

And the “Biodistribution, Lung” value ([1]; second column group, 24 h)?
The value was 0.061.

And the “Biodistribution, Muscle” value ([1]; second column group, 24 h)?
The value was 0.002.

And the “Biodistribution, tumor” value ([1]; second column group, 24 h)?
The value was 0.1057.

What about the “Biodistribution, Blood” value ([1]; second column group, 48 h) of the same compound?
Its value is 0.00228.

What about the “Biodistribution, Bone” value ([1]; second column group, 48 h) of the same compound?
The value was 0.0182.

What about the “Biodistribution, Brain” value ([1]; second column group, 48 h) of the same compound?
The value was 0.00219.

What about the “Biodistribution, Heart” value ([1]; second column group, 48 h) of the same compound?
Its value is 0.00513.

And the “Biodistribution, Lung” value ([1]; second column group, 48 h)?
The value was 0.0472.

And the “Biodistribution, Muscle” value ([1]; second column group, 48 h)?
Its value is 0.018.

What about the “Biodistribution, tumor” value ([1]; second column group, 48 h) of the same compound?
Its value is 0.03983.

What about the “species in tumor extract” value [2] of the same compound?
Its value is “only [^131I]-PU-HZ151 contributed to tumor-associated radioactivity”.
